Source: the supplement of paper PMC4862054

Experiments:
Conditions in all cases: incubation time: 72 h
[1] = tested on: DU-4475; assay: normalised viability (% of control), CellTiter-Blue; higher = more viable cells (about 100 = DMSO control)
Method in brief: (§1)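 Vehicle (100) and a positive kill control (0) anchored the normalisation of each plate, and Z'-factor was used for quality control. Breast cancer cell lines in 20 µl suspension were incubated 72 h over compound in 5 µl medium in 384-well plates, followed by CellTiter-Blue at 560/590 nm. The value is normalised viability at a single listed concentration of the series.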

[2] = tested on: HCC1937; assay: as above
Method in brief: as §1

[3] = tested on: MDA-MB-231; assay: as above
Method in brief: as §1

[4] = tested on: MDA-MB-468; assay: as above
Method in brief: as §1

[5] = tested on: MFM-223; assay: as above
Method in brief: as §1

[6] = tested on: CAL-51; assay: as above
Method in brief: as §1

[7] = tested on: HDQ-P1; assay: as above
Method in brief: as §1

[8] = tested on: CAL-120; assay: as above
Method in brief: as §1

[9] = tested on: MDA-MB-436; assay: as above
Method in brief: as §1

[10] = tested on: HCC1599; assay: as above
Method in brief: as §1

[11] = tested on: Hs578T; assay: as above
Method in brief: as §1

[12] = tested on: CAL-148; assay: as above
Method in brief: as §1

[13] = tested on: SK-BR-3; assay: as above
Method in brief: as §1

[14] = tested on: MDA-MB-453; assay: as above
Method in brief: as §1

[15] = tested on: BT-549; assay: as above
Method in brief: as §1

[16] = tested on: HCC1143; assay: as above
Method in brief: as §1

[17] = tested on: BT-474; assay: as above
Method in brief: as §1

[18] = tested on: CAL-85-1; assay: as above
Method in brief: as §1

[19] = tested on: HCC1937; assay: drug sensitivity score (DSS), CellTox Green (DSS (AUC-based score)); higher = stronger drug effect (viability inhibition or cytotoxicity); extreme values may be limits of the assay
Method in brief: (§2)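 Breast cancer cells were seeded into 384-well plates containing compound at 5 concentrations in 10-fold steps over a compound-specific 10,000-fold range and incubated 72 h. After CellTox Green and CellTiter-Glo readings, each plate was normalised to 0.1 % DMSO and a positive kill control. The drug sensitivity score rests on the area under the fitted dose-response curve.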

[20] = tested on: Hs578T; assay: as above
Method in brief: as §2

[21] = tested on: DU-4475; assay: normalised viability (% of control), CellTiter-Blue; higher = more viable cells (about 100 = DMSO control); remark: listed apart in the source
Method in brief: as §1

[22] = tested on: MDA-MB-231; assay: as above; remark: listed apart in the source
Method in brief: as §1

[23] = tested on: MDA-MB-468; assay: as above; remark: listed apart in the source
Method in brief: as §1

[24] = tested on: CAL-51; assay: as above; remark: listed apart in the source
Method in brief: as §1

[25] = tested on: HCC1599; assay: as above; remark: listed apart in the source
Method in brief: as §1

[26] = tested on: Hs578T; assay: as above; remark: listed apart in the source
Method in brief: as §1

[27] = tested on: CAL-148; assay: as above; remark: listed apart in the source
Method in brief: as §1

[28] = tested on: BT-549; assay: as above; remark: listed apart in the source
Method in brief: as §1

[29] = tested on: HCC1143; assay: as above; remark: listed apart in the source
Method in brief: as §1

COC1=C2C[C@@H](C)C[C@H](OC)[C@H](O)[C@@H](C)/C=C(\C)[C@H](OC(N)=O)[C@@H](OC)/C=C\C=C(/C)C(=O)NC(=CC1=O)C2=O [Geldanamycin]
Conditions	normalised viability [%]
[1], 10 nM	119
[2], 100 nM	31.3
[3], 100 nM	31.4
[4], 100 nM	33.8
[5], 100 nM	50.6
[6], 10 nM	104
[7], 10 nM	109
[8], 100 nM	25.1
[9], 100 nM	20
[10], 100 nM	83.9
[11], 100 nM	56.8
[12], 10 nM	104
[13], 100 nM	22.8
[14], 10 nM	120
[15], 100 nM	39.3
[16], 100 nM	44.3
[17], 100 nM	33.6
[18], 10 nM	105
[21], 3 nM	106
[21], 30 nM	113
[21], 100 nM	73.2
[22], 10 nM	102
[22], 1000 nM	15.3
[22], 10000 nM	4.86
[23], 10 nM	99
[23], 1000 nM	11.2
[23], 10000 nM	8.18
[24], 3 nM	109
[24], 30 nM	100
[24], 100 nM	95.4
[25], 10 nM	113
[25], 1000 nM	31.3
[25], 10000 nM	20.1
[26], 10 nM	122
[26], 1000 nM	31.1
[26], 10000 nM	17.2
[27], 3 nM	102
[27], 30 nM	110
[27], 100 nM	108
[28], 10 nM	89.7
[28], 1000 nM	18
[28], 10000 nM	15.9
[29], 10 nM	90.2
[29], 1000 nM	38.3
[29], 10000 nM	24.9

Conditions	drug sensitivity score
[19]	6.9
[20]	0

CCOc1cc2ncc(C#N)c(Nc3ccc(OCc4ccccn4)c(Cl)c3)c2cc1NC(=O)/C=C/CN(C)C [Neratinib]
Conditions	normalised viability [%]
[1], 1 nM	97.7
[2], 10 nM	106
[3], 10 nM	118
[4], 10 nM	107
[5], 10 nM	87.9
[6], 1 nM	97.1
[7], 1 nM	114
[8], 10 nM	84.9
[9], 10 nM	117
[10], 10 nM	99.7
[11], 10 nM	84.1
[12], 1 nM	93.5
[13], 10 nM	69.9
[14], 1 nM	100
[15], 10 nM	101
[16], 10 nM	89.1
[17], 10 nM	105
[18], 1 nM	96.5
[21], 0.3 nM	103
[21], 3 nM	95.4
[21], 10 nM	101
[22], 1 nM	114
[22], 100 nM	131
[22], 1000 nM	135
[23], 1 nM	110
[23], 100 nM	114
[23], 1000 nM	106
[24], 0.3 nM	92
[24], 3 nM	90.5
[24], 10 nM	93
[25], 1 nM	108
[25], 100 nM	106
[25], 1000 nM	90.1
[26], 1 nM	98.6
[26], 100 nM	88.5
[26], 1000 nM	93.9
[27], 0.3 nM	86.6
[27], 3 nM	78.6
[27], 10 nM	93.9
[28], 1 nM	93.7
[28], 100 nM	82
[28], 1000 nM	93.8
[29], 1 nM	97.1
[29], 100 nM	91.9
[29], 1000 nM	84.5

Conditions	drug sensitivity score
[19]	0
[20]	0
